Organism: Rattus norvegicus
Experiment: Open TG-GATES - Regimen: Single
Assay type: toxicity, organism-based, Sprague-Dawley
Design: regimen Single, gender Male, age 6 weeks
Settings: in vivo, po, route gavage; for APTT / Bas / Eos / Fbg / Hb / Ht / Lym / MCH / MCHC / MCV / Mono / Neu / PT / Plat / RBC / Ret / WBC: tissue Blood; for KIDNEY_L / KIDNEY_R / KIDNEY_TOTAL: tissue Kidney; for LIVER: tissue Liver; for A/G / ALP / ALT / AST / BUN / CRE / Ca / Cl / DBIL / GLC / IP / K / LDH / Na / PL / RALB / TBIL / TC / TG / TP / gamma-GTP: tissue Plasma
[1] = 60 mg/kg, 3 h, dose level Middle
[2] = 60 mg/kg, 6 h, dose level Middle
[3] = 60 mg/kg, 9 h, dose level Middle
[4] = 60 mg/kg, 24 h, dose level Middle
[5] = 200 mg/kg, 3 h, dose level High
[6] = 200 mg/kg, 6 h, dose level High
[7] = 200 mg/kg, 9 h, dose level High
[8] = 200 mg/kg, 24 h, dose level High

CC(CN1c2ccccc2Sc2ccccc21)N(C)C (centres undefined) [PROMETHAZINE]
TERMINAL_BW [1]: 213.4 g
APTT [1]: 22.4 s
Bas [1]: 0%
Eos [1]: 1%
Fbg [1]: 317 mg/dL
Hb [1]: 13.2 g/dL
Ht [1]: 40.6%
Lym [1]: 71.6%
MCH [1]: 20.2 pg
MCHC [1]: 32.6%
MCV [1]: 62 fL
Mono [1]: 2.2%
Neu [1]: 25%
PT [1]: 16.4 s
Plat [1]: 126 x10_4/uL
RBC [1]: 655.2 x10_4/ul
Ret [1]: 7.3%
WBC [1]: 64.7 x10_2/uL
KIDNEY_L [1]: 0.9 g
KIDNEY_R [1]: 0.9 g
KIDNEY_TOTAL [1]: 1.9 g
LIVER [1]: 9.3 g
A/G [1]: 1.3
ALP [1]: 1673 IU/L
ALT [1]: 56.2 IU/L
AST [1]: 87.6 IU/L
BUN [1]: 9.6 mg/dL
CRE [1]: 0.2 mg/dL
Ca [1]: 10.5 mg/dL
Cl [1]: 105.6 meq/L
DBIL [1]: 0.024 mg/dL
GLC [1]: 172.8 mg/dL
IP [1]: 9.6 mg/dL
K [1]: 4.3 meq/L
LDH [1]: 222.6 IU/L
Na [1]: 142.6 meq/L
PL [1]: 132 mg/dL
RALB [1]: 3.1 g/dL
TBIL [1]: 0.016 mg/dL
TC [1]: 75 mg/dL
TG [1]: 50 mg/dL
TP [1]: 5.5 g/dL
gamma-GTP [1]: 1.2 IU/L
TERMINAL_BW [2]: 210 g
APTT [2]: 23.8 s
Bas [2]: 0%
Eos [2]: 0.8%
Fbg [2]: 322 mg/dL
Hb [2]: 13.4 g/dL
Ht [2]: 40.7%
Lym [2]: 77.2%
MCH [2]: 20.1 pg
MCHC [2]: 33%
MCV [2]: 61.1 fL
Mono [2]: 2.8%
Neu [2]: 18.4%
PT [2]: 16.3 s
Plat [2]: 112.6 x10_4/uL
RBC [2]: 667.8 x10_4/ul
Ret [2]: 7.3%
WBC [2]: 85.9 x10_2/uL
KIDNEY_L [2]: 0.9 g
KIDNEY_R [2]: 0.9 g
KIDNEY_TOTAL [2]: 1.8 g
LIVER [2]: 8.6 g
A/G [2]: 1.3
ALP [2]: 1478.6 IU/L
ALT [2]: 43.2 IU/L
AST [2]: 74.6 IU/L
BUN [2]: 9.4 mg/dL
CRE [2]: 0.2 mg/dL
Ca [2]: 10.9 mg/dL
Cl [2]: 105.2 meq/L
DBIL [2]: 0.016 mg/dL
GLC [2]: 180.6 mg/dL
IP [2]: 9.6 mg/dL
K [2]: 4.3 meq/L
LDH [2]: 192.2 IU/L
Na [2]: 141.8 meq/L
PL [2]: 125 mg/dL
RALB [2]: 3 g/dL
TBIL [2]: 0.022 mg/dL
TC [2]: 71.6 mg/dL
TG [2]: 49 mg/dL
TP [2]: 5.5 g/dL
gamma-GTP [2]: 1.4 IU/L
TERMINAL_BW [3]: 211 g
APTT [3]: 24.1 s
Bas [3]: 0%
Eos [3]: 1%
Fbg [3]: 315.8 mg/dL
Hb [3]: 13.3 g/dL
Ht [3]: 40.8%
Lym [3]: 78.6%
MCH [3]: 20.4 pg
MCHC [3]: 32.6%
MCV [3]: 62.5 fL
Mono [3]: 3%
Neu [3]: 17.2%
PT [3]: 16.6 s
Plat [3]: 122 x10_4/uL
RBC [3]: 652.4 x10_4/ul
Ret [3]: 7.6%
WBC [3]: 101.4 x10_2/uL
KIDNEY_L [3]: 0.9 g
KIDNEY_R [3]: 0.9 g
KIDNEY_TOTAL [3]: 1.8 g
LIVER [3]: 8.3 g
A/G [3]: 1.3
ALP [3]: 1318.2 IU/L
ALT [3]: 43.2 IU/L
AST [3]: 69.6 IU/L
BUN [3]: 11.6 mg/dL
CRE [3]: 0.2 mg/dL
Ca [3]: 10.7 mg/dL
Cl [3]: 106.2 meq/L
DBIL [3]: 0.02 mg/dL
GLC [3]: 179.2 mg/dL
IP [3]: 9.5 mg/dL
K [3]: 4.2 meq/L
LDH [3]: 155.8 IU/L
Na [3]: 140.2 meq/L
PL [3]: 131 mg/dL
RALB [3]: 3 g/dL
TBIL [3]: 0.026 mg/dL
TC [3]: 77 mg/dL
TG [3]: 46.8 mg/dL
TP [3]: 5.4 g/dL
gamma-GTP [3]: 1.2 IU/L
TERMINAL_BW [4]: 217.9 g
APTT [4]: 23.6 s
Bas [4]: 0%
Eos [4]: 1%
Fbg [4]: 311.6 mg/dL
Hb [4]: 13.4 g/dL
Ht [4]: 40.3%
Lym [4]: 80%
MCH [4]: 21.1 pg
MCHC [4]: 33.3%
MCV [4]: 63.4 fL
Mono [4]: 2.2%
Neu [4]: 16%
PT [4]: 16.7 s
Plat [4]: 126.1 x10_4/uL
RBC [4]: 635.4 x10_4/ul
Ret [4]: 6.8%
WBC [4]: 113 x10_2/uL
KIDNEY_L [4]: 1 g
KIDNEY_R [4]: 1 g
KIDNEY_TOTAL [4]: 1.9 g
LIVER [4]: 9.5 g
A/G [4]: 1.3
ALP [4]: 1785 IU/L
ALT [4]: 46.8 IU/L
AST [4]: 68 IU/L
BUN [4]: 17.6 mg/dL
CRE [4]: 0.2 mg/dL
Ca [4]: 10.8 mg/dL
Cl [4]: 106.4 meq/L
DBIL [4]: 0.004 mg/dL
GLC [4]: 190.6 mg/dL
IP [4]: 7.4 mg/dL
K [4]: 4.1 meq/L
LDH [4]: 185.4 IU/L
Na [4]: 142 meq/L
PL [4]: 127.6 mg/dL
RALB [4]: 3.1 g/dL
TBIL [4]: 0.014 mg/dL
TC [4]: 68.8 mg/dL
TG [4]: 73 mg/dL
TP [4]: 5.5 g/dL
gamma-GTP [4]: 1.2 IU/L
TERMINAL_BW [5]: 219.2 g
APTT [5]: 23.5 s
Bas [5]: 0%
Eos [5]: 0.8%
Fbg [5]: 315.2 mg/dL
Hb [5]: 13.5 g/dL
Ht [5]: 40.9%
Lym [5]: 78.4%
MCH [5]: 21 pg
MCHC [5]: 32.9%
MCV [5]: 63.9 fL
Mono [5]: 3%
Neu [5]: 17%
PT [5]: 16.4 s
Plat [5]: 126.9 x10_4/uL
RBC [5]: 640.8 x10_4/ul
Ret [5]: 7.8%
WBC [5]: 66.9 x10_2/uL
KIDNEY_L [5]: 0.9 g
KIDNEY_R [5]: 1 g
KIDNEY_TOTAL [5]: 1.9 g
LIVER [5]: 9.7 g
A/G [5]: 1.3
ALP [5]: 1534.6 IU/L
ALT [5]: 59 IU/L
AST [5]: 90.2 IU/L
BUN [5]: 11.8 mg/dL
CRE [5]: 0.1 mg/dL
Ca [5]: 10.8 mg/dL
Cl [5]: 105.4 meq/L
DBIL [5]: 0.036 mg/dL
GLC [5]: 181 mg/dL
IP [5]: 10.1 mg/dL
K [5]: 4.3 meq/L
LDH [5]: 211.8 IU/L
Na [5]: 141.6 meq/L
PL [5]: 135.4 mg/dL
RALB [5]: 3.2 g/dL
TBIL [5]: 0.024 mg/dL
TC [5]: 77.2 mg/dL
TG [5]: 47.4 mg/dL
TP [5]: 5.6 g/dL
gamma-GTP [5]: 1.2 IU/L
TERMINAL_BW [6]: 215.1 g
APTT [6]: 24 s
Bas [6]: 0%
Eos [6]: 0.4%
Fbg [6]: 348.2 mg/dL
Hb [6]: 13.5 g/dL
Ht [6]: 40.8%
Lym [6]: 72.4%
MCH [6]: 20.7 pg
MCHC [6]: 33.1%
MCV [6]: 62.7 fL
Mono [6]: 2.6%
Neu [6]: 23.4%
PT [6]: 16.5 s
Plat [6]: 123.7 x10_4/uL
RBC [6]: 650.4 x10_4/ul
Ret [6]: 7.5%
WBC [6]: 56.6 x10_2/uL
KIDNEY_L [6]: 0.9 g
KIDNEY_R [6]: 0.9 g
KIDNEY_TOTAL [6]: 1.9 g
LIVER [6]: 9.1 g
A/G [6]: 1.2
ALP [6]: 1235.6 IU/L
ALT [6]: 44.8 IU/L
AST [6]: 77.8 IU/L
BUN [6]: 9.8 mg/dL
CRE [6]: 0.2 mg/dL
Ca [6]: 10.7 mg/dL
Cl [6]: 106.4 meq/L
DBIL [6]: 0.018 mg/dL
GLC [6]: 184.8 mg/dL
IP [6]: 9.4 mg/dL
K [6]: 4.4 meq/L
LDH [6]: 237.2 IU/L
Na [6]: 141 meq/L
PL [6]: 130.2 mg/dL
RALB [6]: 3.1 g/dL
TBIL [6]: 0.016 mg/dL
TC [6]: 76 mg/dL
TG [6]: 42 mg/dL
TP [6]: 5.7 g/dL
gamma-GTP [6]: 1.4 IU/L
TERMINAL_BW [7]: 208.1 g
APTT [7]: 24 s
Bas [7]: 0%
Eos [7]: 0.6%
Fbg [7]: 316.4 mg/dL
Hb [7]: 13.6 g/dL
Ht [7]: 41.5%
Lym [7]: 76%
MCH [7]: 20.4 pg
MCHC [7]: 32.9%
MCV [7]: 62.2 fL
Mono [7]: 2.2%
Neu [7]: 20.8%
PT [7]: 16.4 s
Plat [7]: 129.1 x10_4/uL
RBC [7]: 667.2 x10_4/ul
Ret [7]: 7.4%
WBC [7]: 67.2 x10_2/uL
KIDNEY_L [7]: 0.9 g
KIDNEY_R [7]: 0.9 g
KIDNEY_TOTAL [7]: 1.8 g
LIVER [7]: 8.4 g
A/G [7]: 1.2
ALP [7]: 1643.2 IU/L
ALT [7]: 39.6 IU/L
AST [7]: 69.2 IU/L
BUN [7]: 10 mg/dL
CRE [7]: 0.2 mg/dL
Ca [7]: 10.5 mg/dL
Cl [7]: 106.2 meq/L
DBIL [7]: 0.026 mg/dL
GLC [7]: 187 mg/dL
IP [7]: 9.1 mg/dL
K [7]: 4.2 meq/L
LDH [7]: 178.8 IU/L
Na [7]: 141 meq/L
PL [7]: 133.6 mg/dL
RALB [7]: 3.1 g/dL
TBIL [7]: 0.016 mg/dL
TC [7]: 75.6 mg/dL
TG [7]: 43 mg/dL
TP [7]: 5.6 g/dL
gamma-GTP [7]: 1 IU/L
TERMINAL_BW [8]: 209.6 g
APTT [8]: 22.3 s
Bas [8]: 0%
Eos [8]: 0.8%
Fbg [8]: 311.2 mg/dL
Hb [8]: 13.7 g/dL
Ht [8]: 41.5%
Lym [8]: 77.8%
MCH [8]: 20.1 pg
MCHC [8]: 33%
MCV [8]: 60.8 fL
Mono [8]: 2.4%
Neu [8]: 19%
PT [8]: 16.8 s
Plat [8]: 138.5 x10_4/uL
RBC [8]: 684.4 x10_4/ul
Ret [8]: 6.4%
WBC [8]: 71.5 x10_2/uL
KIDNEY_L [8]: 0.9 g
KIDNEY_R [8]: 0.9 g
KIDNEY_TOTAL [8]: 1.9 g
LIVER [8]: 8.6 g
A/G [8]: 1.3
ALP [8]: 1472.4 IU/L
ALT [8]: 40.8 IU/L
AST [8]: 68 IU/L
BUN [8]: 14.6 mg/dL
CRE [8]: 0.2 mg/dL
Ca [8]: 10.7 mg/dL
Cl [8]: 107.6 meq/L
DBIL [8]: 0.018 mg/dL
GLC [8]: 185.2 mg/dL
IP [8]: 8.3 mg/dL
K [8]: 4.2 meq/L
LDH [8]: 190 IU/L
Na [8]: 142.4 meq/L
PL [8]: 139 mg/dL
RALB [8]: 3.1 g/dL
TBIL [8]: 0.018 mg/dL
TC [8]: 79.4 mg/dL
TG [8]: 43.4 mg/dL
TP [8]: 5.6 g/dL
gamma-GTP [8]: 1 IU/L

From ChEMBL document CHEMBL3885861, “Open TG-GATES”
